The text below walks through data of US20090036472A1, “AZABICYCLO DERIVATIVES AS ANTI-INFLAMMATORY AGENTS” (priority 2005, published 2009).

Data set [1] concerns TNF-α release from LPS-stimulated human peripheral blood mononuclear cells. Briefly: Cell based assay for TNF-α release, LPS stimulation of human PBMNC's. Particulars: PBMC, LPS 20 ng/ml, overnight, ELISA, collective range for the listed compounds, units given within the value (μM to nM), read-out: IC50 (TNF-α release; printed as IC50 for p38 inhibitory activity). The method, then:
Cell based Assay for TNF-α release
Method of Isolation of Human Peripheral Blood Mononuclear Cells:
Human whole blood was collected in vacutainer tubes containing EDTA as an anti coagulant. A blood sample (7 ml) was carefully layered over 5 ml PMN Cell Isolation Medium (Robbins Scientific) in a 15 ml round bottom centrifuge tubes. The sample was centrifuged at 450-500×g for 30-35 minutes in a swing-out rotor at room temperature. After centrifugation the top band of cells were removed and washed 3 times with PBS w/o calcium or magnesium. The cells were centrifuged at 400×g for 10 minutes at room temperature. The cells were resuspended in Macrophage Serum Free Medium (Gibco BRL) at concentration of 2 million cells/ml.
LPS Stimulation of Human PBMNC's:
PBM cells (0.1 ml; 2 million/ml) were co-incubated with 0.1 ml of compound (10-0.41 μM, final concentration) for 1 hour in flat bottom 96 well microtiter plate. Compounds were dissolved in DMSO initially and diluted in TCM for a final concentration of 0.1% DMSO. LPS (Cal biochem, 20 ng/ml, final concentration) was then added at volume of 0.010 ml. Cultures were incubated overnight at 37° C.). Supernatant were then removed and tested by ELISA for TNF-α release. Viability was analyzed using MTT. After 0.1 ml supernatant was collected, 0.1 ml of 0.25 mg/ml of MTT was added to remaining 0.1 ml of cells. The cells were incubated at 37° C. for 2-4 hours, then the O.D was measured at 490-650 nm.
The TNF-α levels released in the culture medium was quantitated by ELISA. Inhibitory potency was expressed as IC50.
(In general: An ELISA detects its analyte on a solid surface through an enzyme-linked reagent.)

A further data set addresses activated p38 (Homo sapiens, UniProt Q16539). The experiment in a line: p38 inhibition assay: inhibition of phosphorylation of EGF receptor peptide. In kind it is biochemical. Conditions: compound behaviour in the assay. The protocol:
p38 Inhibition Assays—Inhibition of Phosphorylation of EGF Receptor Peptide
This assay was carried out in the presence of 10 mM MgCl2, 25 mM β-glycerophosphate, 10% glycerol and 100 mM HEPES buffer at pH 7.6. For a typical IC50 determination, a stock solution was prepared containing all of the above components and activated p38 (5 nM). The stock solution was aliquoted into vials. A fixed volume of DMSO or inhibitor in DMSO (final concentration of DMSO in reaction was 5%) was introduced to each vial, mixed and incubated for 15 minutes at room temperature.
EGF receptor peptide, […], a phosphoryl acceptor in p38-catalysed kinase reaction (1), was added to each vial to a final concentration of 200 μM. The kinase reaction was initiated with ATP (100 μm) and the vials were incubated at 30C. After 30 minutes, the reactions were quenched with equal volume of 10% trifluoroacetic acid (TFA).
The phosphorylated peptide was quantified by HPLC analysis. Separation of the phosphorylated peptide from the unphosphorylated peptide was achieved on a reverse phase column (Deltapak, 5 μM, C18 100D, part no. 011795) with a binary gradient of water and acetonitrile, each containing 0.1% TFA. IC50 (concentration of inhibitor yielding 50% inhibition) was determined by plotting the % activity remaining against inhibitor concentration.

activated p38, sequence (Q16539 whole entry): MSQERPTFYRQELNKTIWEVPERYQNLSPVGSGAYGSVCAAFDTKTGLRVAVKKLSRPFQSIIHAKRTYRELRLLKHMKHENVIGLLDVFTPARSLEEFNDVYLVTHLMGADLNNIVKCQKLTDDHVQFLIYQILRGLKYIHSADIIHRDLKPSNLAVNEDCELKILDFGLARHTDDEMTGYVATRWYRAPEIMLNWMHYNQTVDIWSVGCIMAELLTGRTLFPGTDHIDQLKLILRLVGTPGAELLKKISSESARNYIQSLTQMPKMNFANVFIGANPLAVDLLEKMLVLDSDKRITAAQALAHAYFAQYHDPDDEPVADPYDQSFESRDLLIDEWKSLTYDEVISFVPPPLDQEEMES

As for `Cn1c(=O)c(-c2ccccc2Cl)cc2cnc(NN3CC4CCCC4C3)nc21` (stereo not drawn) [Compound No. 1, 6-(2-Chlorophenyl)-2-(3-azabicyclo[3.3.0]oct-3-yl-amino)-8-methylpyrido[2,3-d]pyrimidin-7(8H)-one], the IC50 (usually the midpoint of a concentration-inhibition curve) in data set [1] is 0.14 to 3 µM. On to `Cc1ccccc1-c1cc2cnc(NN3CC4CCCC4C3)nc2n(C)c1=O` (stereo not drawn) [Compound No. 2, 6-(2-Methylphenyl)-2-(3-azabicyclo[3.3.0]oct-3-yl-amino)-8-methylpyrido[2,3-d]pyrimidin-7(8H)-one], for which the melting point (as a rule, the temperature, or range, at which the solid turns liquid) was in the range of 69.8 to 79.8 °C. As for `O=c1c(-c2ccccc2F)cc2cnc(NN3CC4CCCC4C3)nc2n1Cc1ccc(F)cc1` (stereo not drawn) [Compound No. 13, 6-(2-Fluorophenyl)-2-(3-azabicyclo[3.3.0]oct-3-yl-amino)-8-(4-fluorobenzyl)-pyrido[2,3-d]pyrimidin-7(8H)-one], the “observation in the p38 enzyme assay” value on activated p38 was “formed a precipitate”. Take `CCOC(=O)C(C)n1c(=O)c(-c2ccccc2F)cc2cnc(NN3CC4CCCC4C3)nc21` (stereo not drawn) [Compound No. 20, Ethyl 2-[6-(2-fluorophenyl)-2-(3-azabicyclo[3.3.0]oct-3-yl-amino)-7-oxopyrido[2,3-d]pyrimidin-8(7H)-yl]propanoate]: the IC50 in data set [1] fell in the range of 0.14 to 3 µM. In the case of `CCOC(=O)C(C)n1c(=O)c(-c2ccccc2C)cc2cnc(NN3CC4CCCC4C3)nc21` (stereo not drawn) [Compound No. 21, Ethyl 2-[6-(2-methylphenyl)-2-(3-azabicyclo [3.3.0]oct-3-yl-amino)-7-oxopyrido[2,3-d]pyrimidin-8(7H)-yl]propanoate], the IC50 in data set [1] was in the range of 0.14 to 3 µM.

`O=c1c(-c2ccccc2F)cc2cnc(NN3CC4CCCC4C3)nc2n1C1CCCC1` (stereo not drawn) [Compound No. 22, 6-(2-Fluorophenyl)-2-(3-azabicyclo[3.3.0]oct-3-yl-amino)-8-(cyclopentyl)pyrido[2,3-d]pyrimidin-7(8H)-one]: the IC50 in data set [1] fell in the range of 0.14 to 3 µM. As to `O=c1c(-c2ccccc2F)cc2cnc(NN3CC4CCCC4C3)nc2n1CC1CC1` (stereo not drawn) [Compound No. 23, 6-(2-Fluorophenyl)-2-(3-azabicyclo[3.3.0]oct-3-yl-amino)-8-(cyclopropylmethyl)-pyrido[2,3-d]pyrimidin-7(8H)-one], in data set [1], the IC50 was 0.14 to 3 µM. In the case of `CCOCCn1c(=O)c(-c2ccccc2Cl)cc2cnc(NN3CC4CCCC4C3)nc21` (stereo not drawn) [Compound No. 25, 6-(2-Chlorophenyl)-2-(3-azabicyclo[3.3.0]oct-3-yl-amino)-8-(2-ethoxyethyl)pyrido[2,3-d]pyrimidin-7(8H)-one], the IC50 in data set [1] was in the range of 0.14 to 3 µM. The same measure, in the same setting: in the case of `CCCCS(=O)(=O)NCCn1c(=O)c(-c2ccccc2C)cc2cnc(NN3CC4CCCC4C3)nc21` (stereo not drawn) [Compound No. 40, N-{2-[2-(3-azabicyclo[3.3.0]oct-3-yl-amino)-6-(2-methylphenyl)-7-oxopyrido[2,3-d]pyrimidin-8(7H)-yl]ethyl}butane-1-sulfonamide] it was 0.14 to 3 µM. `CCOC(=O)Cn1c(=O)c(-c2ccccc2C)cc2cnc(NN3CC4CCCC4C3)nc21` (stereo not drawn) [Compound No. 44, Ethyl[2-(3-azabicyclo[3.3.0]oct-3-yl-amino)-6-(2-methylphenyl)-7-oxopyrido[2,3-d]pyrimidin-8(7H)-yl]acetate]: the IC50 in data set [1] lay in the range of 0.14 to 3 µM. `Cc1ccccc1-c1cc2cnc(NN3CC4CCCC4C3)nc2n(CC(=O)NC2CCC2)c1=O` (stereo not drawn) [Compound No. 47, N-Cyclobutyl-2-[2-(3-azabicyclo[3.3.0]oct-3-yl-amino)-6-(2-methylphenyl)-7-oxopyrido[2,3-d]pyrimidin-8(7H)-yl]acetamide]: the IC50 in data set [1] was in the range of 0.14 to 3 µM. Consider `COCCn1c(=O)c(-c2ccccc2C)cc2cnc(NN3CC4CCCC4C3)nc21` (stereo not drawn) [Compound No. 50, 6-(2-Methylphenyl)-2-(3-azabicyclo[3.3.0]oct-3-yl-amino)-8-(2-methoxyethyl)-pyrido[2,3-d]pyrimidin-7(8H)-one], for which, in data set [1], the IC50 was 0.14 to 3 µM. As for `CCOCCn1c(=O)c(-c2ccccc2C)cc2cnc(NN3CC4CCCC4C3)nc21` (stereo not drawn) [Compound No. 51, 6-(2-Methylphenyl)-2-(3-azabicyclo[3.3.0]oct-3-yl-amino)-8-(2-ethoxyethyl)pyrido[2,3-d]pyrimidin-7(8H)-one], the IC50 in data set [1] fell in the range of 0.14 to 3 µM. As for `O=c1c(-c2ccccc2Cl)cc2cnc(NN3CC4CCCC4C3)nc2n1C1CC1` (stereo not drawn) [Compound No. 52, 6-(2-Chlorophenyl)-2-(3-azabicyclo[3.3.0]oct-3-yl-amino)-8-cyclopropyl-pyrido[2,3-d]pyrimidin-7(8H)-one], the IC50 in data set [1] lay in the range of 0.14 to 3 µM. In the case of `O=c1c(Oc2ccccc2F)cc2cnc(NN3CC4CCCC4C3)nc2n1C1CC1` (stereo not drawn) [Compound No. 59, 6-(2-Fluorophenoxy)-2-(3-azabicyclo[3.3.0]oct-3-yl-amino)-8-cyclopropyl-pyrido[2,3-d]pyrimidin-7(8H)-one], the IC50 in data set [1] is 0.14 to 3 µM.

With `Cn1c(=O)c(-c2c(Cl)cccc2Cl)cc2cnc(NN3CC4CCCC4C3)nc21` (stereo not drawn) [Compound No. 68, 6-(2,6-Dichlorophenyl)-2-(3-azabicyclo[3.3.0]oct-3-yl-amino)-8-methylpyrido[2,3-d]pyrimidin-7(8H)-one], the IC50 in data set [1] is 0.14 to 3 µM. As to `Cn1c(=O)c(-c2ccccc2[N+](=O)[O-])cc2cnc(NN3CC4CCCC4C3)nc21` (stereo not drawn) [Compound No. 69, 6-(2-Nitrophenyl)-2-(3-azabicyclo [3.3.0]oct-3-yl-amino)-8-methyl-pyrido[2,3-d]pyrimidin-7(8H)-one], in data set [1], the IC50 is 0.14 to 3 µM. For the compound `Cn1c(=O)c(-c2ccc(F)cc2Cl)cc2cnc(NN3CC4CCCC4C3)nc21` (stereo not drawn) [Compound No. 71, 6-(2-Chloro-4-fluorophenyl)-2-(3-azabicyclo [3.3.0]oct-3-yl-amino)-8-methylpyrido[2,3-d]pyrimidin-7(8H)-one], the half-maximal inhibitory concentration (IC50) in data set [1] was in the range of 0.14 to 3 µM.
